What is called Kd is the free concentration of one partner at which half of the binding sites on the other are occupied at equilibrium, for simple one-to-one binding. A low value points to a tighter complex. For orientation: EC50 means the midpoint of the concentration-response curve.

Assay [1] addresses influenza A PB2long (FluA H3N2 PB2 241–741) (Influenza A virus (A/Udorn/307/1972(H3N2)), UniProt Q67296). Description: biochemical. The assay is classed as binding, influenza A/Udorn/307/1972(H3N2).
Assay [2] has as its target PB2long (Influenza A virus (A/Udorn/307/1972(H3N2)), UniProt Q67296). Kind of assay: biochemical. The assay is classed as binding, influenza A/Udorn/307/1972(H3N2).
For assay [3], the target named is PB2cap (Influenza A virus (A/Udorn/307/1972(H3N2)), UniProt Q67296). Description: biochemical. The assay is classed as binding, influenza A/Udorn/307/1972(H3N2).
Assay [4] relates to A/H3N2/Udorn/72 PB2, PB1, PA, NP replicon (WT). Description: cells. The following applies: Influenza A virus, H3N2, HEK-293T, 48 h, read-out: Replicon EC50, WT. The assay is classed as cell-based, influenza A/H3N2/Udorn/72 in 293 T cells. In general terms: A replicon is a self-replicating genome or part of one, used to study replication in cells.

Sequence of PB2long (Influenza A virus (A/Udorn/307/1972(H3N2)), UniProt Q67296) (Q67296 241-741 limits assumed): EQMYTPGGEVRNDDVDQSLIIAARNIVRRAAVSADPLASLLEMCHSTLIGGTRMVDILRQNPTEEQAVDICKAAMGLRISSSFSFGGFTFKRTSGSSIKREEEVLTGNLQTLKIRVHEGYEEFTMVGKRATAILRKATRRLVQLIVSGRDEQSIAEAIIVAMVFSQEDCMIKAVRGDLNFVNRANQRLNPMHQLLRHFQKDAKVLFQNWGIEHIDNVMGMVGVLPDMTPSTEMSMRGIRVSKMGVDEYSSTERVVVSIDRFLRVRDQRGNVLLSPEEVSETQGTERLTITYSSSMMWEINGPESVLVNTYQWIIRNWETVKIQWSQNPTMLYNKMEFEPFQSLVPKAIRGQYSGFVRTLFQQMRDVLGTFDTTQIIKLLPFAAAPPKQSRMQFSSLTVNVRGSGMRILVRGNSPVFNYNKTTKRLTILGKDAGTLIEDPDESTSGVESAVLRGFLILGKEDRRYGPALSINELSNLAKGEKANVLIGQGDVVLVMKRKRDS
Sequence of PB2cap (Influenza A virus (A/Udorn/307/1972(H3N2)), UniProt Q67296) (Q67296 309-483 limits assumed): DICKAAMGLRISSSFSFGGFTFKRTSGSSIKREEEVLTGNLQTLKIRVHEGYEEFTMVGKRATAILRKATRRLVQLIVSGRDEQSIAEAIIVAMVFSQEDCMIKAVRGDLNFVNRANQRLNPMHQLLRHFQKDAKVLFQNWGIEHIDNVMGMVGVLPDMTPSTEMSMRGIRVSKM
Sequence of influenza A PB2long (FluA H3N2 PB2 241–741) (Influenza A virus (A/Udorn/307/1972(H3N2)), UniProt Q67296) (Q67296 241-741 limits assumed): as the sequence (Q67296 241-741 limits assumed) above

As to `O=C(O)[C@H]1C2CCC(CC2)[C@@H]1Nc1nc(-c2c[nH]c3ncc(F)cc23)ncc1F` [VX-787], the Kd in assay [1] came to 0.67 nM; in assay [2] it was 0.0067 nM; in assay [3], 78 nM. The kon in assay [2] (read-out: ka (association rate), PB2long) came to 2.9e+06 M⁻¹ s⁻¹; in assay [3] (read-out: ka (association rate), PB2cap), 59000 M⁻¹ s⁻¹. For the same compound, the koff in assay [2] (read-out: kd (dissociation rate), PB2long) amounted to 2e-05 s⁻¹; in assay [3] (read-out: kd (dissociation rate), PB2cap) it was 0.0046 s⁻¹. In assay [4], the EC50 turned out to be 3.5 nM.

The values are drawn from PMC5571044 (Scientific Reports, 2017).
